These results are taken from the NIST ThermoML archive (doi:10.1016/j.fluid.2017.05.012).

Numbers after ± are expanded uncertainties.

The conditions of this data set: Liquid, Ebulliometric method (Recirculating still).

The term vapor or sublimation pressure denotes the equilibrium pressure above the liquid or solid. On to `CCCO` [propan-1-ol], for which the “vapor or sublimation pressure” value (370.2 K) came to 101 ± 1 kPa.

Take `CCCOC(C)=O` [propyl ethanoate]: the “vapor or sublimation pressure” value (374.8 K) is recorded as 101 ± 1 kPa.

For `O` [water], the “vapor or sublimation pressure” value (372.9 K) was determined as 101 ± 1 kPa.
